{
  "source": "patent US20240172750A1",
  "about": "“5-Fluoro-4-Imino-3-Methyl-1-Tosyl-3,4-Dihydropyrimidin-2(1H)-One for Controlling Plant Diseases” (Adama Makhteshim Ltd., priority 2021, published 2024)",
  "key": {"Daphnia magna": {"test_system": "Daphnia magna", "experiment": "Ecotoxicity: aquatic invertebrates, long-term", "format": "in vivo", "source_text": "(§1) The ecotoxicity of flumetylsulforim was investigated in numerous studies in accordance with the strict requirements for the approval of active substances in the EU."}, "Bobwhite quail [1]": {"test_system": "Bobwhite quail", "experiment": "Ecotoxicity: birds, acute", "format": "in vivo", "source_text": "as §1"}, "Rat": {"test_system": "Rat", "experiment": "Ecotoxicity: mammals, acute", "format": "in vivo", "source_text": "as §1"}, "Honeybee [2]": {"test_system": "Honeybee", "experiment": "Ecotoxicity: honeybee, acute contact", "format": "in vivo", "source_text": "as §1"}, "[3]": {"test_system": "Microsphaera diffusa (powdery mildew)", "procedure": "Microsphaera diffusa (powdery mildew) is artificially inoculated by spraying the inoculum on the leaves few days after the application.\nTo test for fungicidal control of Microsphaera diffusa (powdery mildew), the soybean plants, grown in pots, are sprayed at V2 with each of the above treatments. 5 pots with 3 soybean plants each are considered, each treatment counts for 4 replicates.\nBetween 14 and 21 days from the inoculation, the severity (%) of the infection is assessed."}, "Botrytis cinerea": {"test_system": "Botrytis cinerea", "experiment": "Grey mould in strawberry, pot trial, foliar treatment", "format": "in vivo", "settings": "250 OD at 450 g ai/ha, 3 applications, last assessment", "experimental": "The compound of formula I 250 OD was tested at different doses, namely 400, 450 and 500 g ai/ha as depicted in the table below and compared to an untreated control as well as two reference products, SCALA (pyrimethanil 400 g/L) at 1000 g ai/ha and SIGNUM (boscalid+pyraclostrobin 26.7+[…]) at 600 g ai/ha.\nBotrytis cinerea was artificial inoculated by spraying the inoculum on the leaves 3-4 days before the application.\nTo test for fungicidal control of Botrytis cinerea, the strawberry plants, grown in pots, were sprayed with each of the above treatments. 5 pots of 22 cm of diameter (the soil used for the trial is a mix of peat and perlite) with 1 plant each were used, 1 pot per replicate (each treatment is made of 4 replicates) was considered.\nEach of the treatments was applied 3 times (ABC) according to the disease development as follows: A, early curative (before the disease symptoms appear; 3-4 days after the artificial inoculation), B, 7-10 days from A and C, to be evaluated in function of the disease development (7-10 days from B).\nAt the first symptoms the following parameters were assessed: • percentage of affected leaf area (% severity) • percentage of affected leaves (% incidence) • percentage of affected fruit area (% severity) • percentage of affected fruits (% incidence)"}, "[4]": {"test_system": "Colletotrichum dematium var. truncatum", "experiment": "Pot trial, Colletotrichum dematium var. truncatum on soybean", "format": "in vivo", "settings": "50-200 g ai/ha", "procedure": "The inoculation of Corynespora cassiicola and Colletotrichum dematium var. truncatum is done with infected leaves from the field few days after the application.\nTo test for fungicidal control against the two necrotrophic diseases, the soybean plants, grown in pots, are sprayed at V2 with each of the above treatments. 5 pots with 3 soybean plants each are considered, each treatment counts for 4 replicates.\nBetween 14 and 21 days from the inoculation the severity (%) of the infection is assessed."}, "Oil seed rape": {"test_system": "Oil seed rape", "experiment": "Non-target terrestrial plants, seedling emergence", "format": "in vivo", "source_text": "as §1"}, "Ryegrass": {"test_system": "Ryegrass", "experiment": "Non-target terrestrial plants, seedling emergence", "format": "in vivo", "source_text": "as §1"}, "Carrot": {"test_system": "Carrot", "experiment": "Non-target terrestrial plants, seedling emergence", "format": "in vivo", "source_text": "as §1"}, "Onion": {"test_system": "Onion", "experiment": "Non-target terrestrial plants, seedling emergence", "format": "in vivo", "source_text": "as §1"}, "Sunflower": {"test_system": "Sunflower", "experiment": "Non-target terrestrial plants, seedling emergence", "format": "in vivo", "source_text": "as §1"}, "Maize": {"test_system": "Maize", "experiment": "Non-target terrestrial plants, seedling emergence", "format": "in vivo", "source_text": "as §1"}, "Soybean": {"test_system": "Soybean", "experiment": "Non-target terrestrial plants, seedling emergence", "format": "in vivo", "source_text": "as §1"}, "Sugar beet": {"test_system": "Sugar beet", "experiment": "Non-target terrestrial plants, seedling emergence", "format": "in vivo", "source_text": "as §1"}, "Common oat": {"test_system": "Common oat", "experiment": "Non-target terrestrial plants, seedling emergence", "format": "in vivo", "source_text": "as §1"}, "Cucumber": {"test_system": "Cucumber", "experiment": "Non-target terrestrial plants, seedling emergence", "format": "in vivo", "source_text": "as §1"}, "M. fijiensis": {"test_system": "M. fijiensis", "experiment": "Black sigatoka on banana plants in climatic chamber", "format": "in vivo, Mycosphaerella fijiensis", "experimental": "The banana plants used for this experimentation were obtained from vitro-plants Cavendish type furnished by VITROPIC S.A. (France). One-month old plants (2 fully deployed leaves: F2 (oldest leaf) and F1 and the cigar leaf) are treated (see details in the table below) were inoculated with a calibrated mycelial seed-inoculum of a mixture of 4 M. fijiensis strains (for each treatment, 3 repetitions (banana plants) are considered). Banana leaves of each plant were treated on their upper (adaxial) and lower (abaxial) face and then incubated for one hour under a laminar flow in order to let dry the fungicide droplets. After inoculation, banana plants were transferred in climatic chamber: 25° C. day/18° C. night, photoperiod of 16 h light/8 h dark and 100% Relative Humidity. From 28 days to 56 days post inoculation (dpi) each banana plants is observed and the disease intensity severity (DSI: Disease Severity Index) is evaluated over time in order to determine the AUDPC (Area Under Disease Progress Curve)—Table 12, and the fungicidal efficacy expressed in percent of the untreated control—Table 13."}, "Honeybee [5]": {"test_system": "Honeybee", "experiment": "Ecotoxicity: honeybee, chronic larvae", "format": "in vivo", "source_text": "as §1"}, "[6]": {"test_system": "Erysiphe betae (powdery mildew)", "experiment": "Greenhouse screening test, powdery mildew in sugar beet", "format": "in vivo", "settings": "starting from 100 g ai/ha, applied one day after inoculation", "experimental": "The screening test was conducted in a greenhouse in Gerichshain, Kupferstraße 6, Germany. The test was performed from application until 28 days after treatment. The efficacy and phytotoxic symptoms of compound of formula I to the plant species sugar beet were examined with a water control under greenhouse conditions. During the whole trial period the plants were stored at 12.6° C.-24.2° C. and 41.9-78.2% relative humidity.\nThe inoculation of the leaves was carried out. A spore suspension was produced. Infested leaves of sugar beets from a field were put in water for some minutes to get a spore suspension. For better homogeneity Tween 20 (Polysorbat) was added to the spore solution (0.1%). Two diseases were observed on the sampled leaves, Uromyces betae and Erysiphe betae, just E. betae infested the plants in this screening trial. […]\nThe application was carried out once one day after inoculation in an automatic application cabin at a spray volume equivalent to 200 L/ha. During the observation period of 28 days after treatment (DAT), the plants were assessed weekly for growth stage, leaf diseases and phytotoxicity. […]"}, "Bobwhite quail [7]": {"test_system": "Bobwhite quail", "experiment": "Ecotoxicity: birds, reproduction", "format": "in vivo", "source_text": "as §1"}, "[8]": {"settings": "wheats and barley at 2 × 100 g/ha"}},
  "data": [
    {"smiles": "Cc1ccc(S(=O)(=O)n2cc(F)c(=N)n(C)c2=O)cc1", "note": "[compound of formula I, 5-fluoro-4-imino-3-methyl-1-tosyl-3,4-dihydropyrimidin-2(1H)-one]", "values": [
      {"measurement": "NOEC", "setting": "Daphnia magna", "result": "NOEC = 0.32 mg/L"},
      {"measurement": "Risk at current use pattern", "setting": "Daphnia magna; [8]", "result": "Acceptable"},
      {"measurement": "LD50", "setting": "Bobwhite quail [1]", "result": "LD50 > 2000 mg/kg bw"},
      {"measurement": "LD50", "setting": "Rat", "result": "LD50 > 2000 mg/kg bw"},
      {"measurement": "Risk at current use pattern", "setting": "Rat; [8]", "result": "Acceptable"},
      {"measurement": "LD50", "setting": "Honeybee [2]", "result": "LD50 > 50 μg/bee"},
      {"measurement": "phytotoxicity", "setting": "[3]; in vivo", "result": "no significant phytotoxicity"},
      {"measurement": "control of Microsphaera diffusa", "setting": "[3]; soybean, 50-200 g ai/ha", "result": "effectively controls"},
      {"measurement": "control (fungicide efficacy on leaf severity)", "setting": "Botrytis cinerea", "result": "more than 90%"},
      {"measurement": "control of Colletotrichum dematium var. truncatum", "setting": "[4]", "result": "effectively controls"},
      {"measurement": "ER50", "setting": "Oil seed rape", "result": "ER50 > 189 g/ha"},
      {"measurement": "Risk at current use pattern", "setting": "Oil seed rape; [8]", "result": "Acceptable"},
      {"measurement": "ER50", "setting": "Ryegrass", "result": "ER50 > 189 g/ha"},
      {"measurement": "Risk at current use pattern", "setting": "Ryegrass; [8]", "result": "Acceptable"},
      {"measurement": "ER50", "setting": "Carrot", "result": "ER50 > 189 g/ha"},
      {"measurement": "Risk at current use pattern", "setting": "Carrot; [8]", "result": "Acceptable"},
      {"measurement": "ER50", "setting": "Onion", "result": "ER50 > 189 g/ha"},
      {"measurement": "Risk at current use pattern", "setting": "Onion; [8]", "result": "Acceptable"},
      {"measurement": "ER50", "setting": "Sunflower", "result": "ER50 > 189 g/ha"},
      {"measurement": "Risk at current use pattern", "setting": "Sunflower; [8]", "result": "Acceptable"},
      {"measurement": "ER50", "setting": "Maize", "result": "ER50 > 189 g/ha"},
      {"measurement": "Risk at current use pattern", "setting": "Maize; [8]", "result": "Acceptable"},
      {"measurement": "ER50", "setting": "Soybean", "result": "ER50 > 189 g/ha"},
      {"measurement": "Risk at current use pattern", "setting": "Soybean; [8]", "result": "Acceptable"},
      {"measurement": "ER50", "setting": "Sugar beet", "result": "ER50 > 189 g/ha"},
      {"measurement": "Risk at current use pattern", "setting": "Sugar beet; [8]", "result": "Acceptable"},
      {"measurement": "ER50", "setting": "Common oat", "result": "ER50 > 189 g/ha"},
      {"measurement": "Risk at current use pattern", "setting": "Common oat; [8]", "result": "Acceptable"},
      {"measurement": "ER50", "setting": "Cucumber", "result": "ER50 > 189 g/ha"},
      {"measurement": "Risk at current use pattern", "setting": "Cucumber; [8]", "result": "Acceptable"},
      {"measurement": "control of Mycosphaerella fijiensis in banana (conclusion)", "setting": "M. fijiensis", "result": "efficiently controlling"},
      {"measurement": "NOEC", "setting": "Honeybee [5]", "result": "NOEC > 250 mg/kg diet"},
      {"measurement": "Risk at current use pattern", "setting": "Honeybee [5]; [8]", "result": "Acceptable"},
      {"measurement": "reduction of the affected leaf area compared to the UTC", "setting": "[6]", "result": "> 60", "unit": "%"},
      {"measurement": "NOED", "setting": "Bobwhite quail [7]", "result": "NOED > 67.8 mg/kg bw/d"},
      {"measurement": "Risk at current use pattern", "setting": "Bobwhite quail [7]; [8]", "result": "Acceptable"}
    ]}
  ]
}
